The record followed here is BindingDB's records for doi:10.1124/mol.59.3.434 (Smithkline Beecham Pharmaceuticals, 2001).

This experiment concerns the target Histamine H4 receptor (Homo sapiens, UniProt Q9H3N8).

Where “and” joins values, the source holds several entries; their conditions need not be identical. Equal values may be shown once.

Sequence of Histamine H4 receptor (Q9H3N8 whole entry): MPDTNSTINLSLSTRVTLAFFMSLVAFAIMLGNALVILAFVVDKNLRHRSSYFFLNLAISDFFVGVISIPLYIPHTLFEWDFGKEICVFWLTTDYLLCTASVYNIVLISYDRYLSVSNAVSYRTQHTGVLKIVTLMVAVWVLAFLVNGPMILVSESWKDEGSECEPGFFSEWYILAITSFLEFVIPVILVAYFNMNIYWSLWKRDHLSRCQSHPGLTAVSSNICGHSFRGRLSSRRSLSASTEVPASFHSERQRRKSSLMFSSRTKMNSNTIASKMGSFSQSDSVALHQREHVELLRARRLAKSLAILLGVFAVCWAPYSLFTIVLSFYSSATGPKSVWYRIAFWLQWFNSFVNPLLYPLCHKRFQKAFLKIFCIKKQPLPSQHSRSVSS

As for `C[C@@H](N)Cc1c[nH]cn1`, the Ki was 348 nM and 232 nM.
